Where two headings read alike, the source gives them in different places.
Key:
[1] = system: ERK phosphorylation in KYSE-520 cells; experiment: Phospho-ERK cellular assay (Advanced phospho-ERK1/2 (Thr202/Tyr204) TR-FRET kit); type: cell-based; details: Homo sapiens, KYSE-520, 2 h, read-out: pERK IC50
Description: Phospho-ERK Cellular Assay
ERK phosphorylation was detected using the “Advanced phospho-ERK1/2 (Thr202/Tyr204)” TR-FRET kit (Cisbio, Cat #64AERPEG/H), following the manufacturer reagents and instructions. […] After an overnight incubation, cells were treated with DMSO serial diluted compounds and incubated for 2 h at 37° C. After incubation, 2 μL/well of 4× Lysis Buffer (Cisbio 64KL1FDF), were added and incubated with cells for 30 min on gentle shaking. Finally, lysates were added with 2 μL/well of Eu cryptate (donor) and D2 (acceptor) conjugated antibodies (as provided by the Cisbio kit #64AERPEG/H) diluted 1:100 in Detection Buffer (as provided by the Cisbio kit #64AERPEG/H). Plates were then sealed and incubated at room temperature in the dark. After an overnight incubation, the TR-FRET signal was detected on a suitable reader (Envision, PerkinElmer). The lower the TR-FRET signal the higher the higher the SHP2 inhibition in cells. […] The percentage activity is fitted against the compound dilutions with a four-parameter logistic regression. The inflection point (i.e. the concentration at which half-maximal inhibition is achieved) is the IC50.

[2] = target: T1, SHP-2 enzyme (Met1-Leu525) (Homo sapiens, UniProt Q06124); experiment: SHP2 inhibition enzymatic assay (DiFMUP substrate, IRS1 peptide activation); type: biochemical; details: SHP2 wt; activated by 500 nM IRS1 peptide; 75 μM DiFMUP substrate
T1 construct: synthetized by Origene, Met1-Leu525, cat #TP750155; purchased Origene TP750155
T1 sequence (Q06124 1-525): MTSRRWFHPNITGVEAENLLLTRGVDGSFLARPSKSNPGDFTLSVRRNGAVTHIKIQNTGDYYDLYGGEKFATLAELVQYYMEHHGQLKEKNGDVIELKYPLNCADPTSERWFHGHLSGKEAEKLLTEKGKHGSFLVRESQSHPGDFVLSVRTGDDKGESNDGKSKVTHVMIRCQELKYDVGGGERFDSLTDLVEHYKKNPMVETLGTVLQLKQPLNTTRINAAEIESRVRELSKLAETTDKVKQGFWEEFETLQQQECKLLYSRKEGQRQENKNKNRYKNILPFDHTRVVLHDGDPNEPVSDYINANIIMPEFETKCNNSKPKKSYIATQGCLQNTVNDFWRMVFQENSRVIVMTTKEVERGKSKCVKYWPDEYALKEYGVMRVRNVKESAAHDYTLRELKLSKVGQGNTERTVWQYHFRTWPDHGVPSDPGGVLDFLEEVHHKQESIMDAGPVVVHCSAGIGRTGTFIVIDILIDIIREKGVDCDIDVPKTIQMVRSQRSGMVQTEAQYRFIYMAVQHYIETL
How it was run: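 SHP-2 (Met1-Leu525, 0.5 nM final) preincubated 30 min with compounds and IRS1 activating peptide in HEPES pH 7.2 buffer with NaCl, KCl, EDTA, tween-20, 5 mM DTT. DiFMUP then added for 30 min at room temperature and fluorescence read. IC50 from four-parameter logistic fit of % inhibition.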

[3] = KYSE-520 cells, 2 h at 37° C., TR-FRET

Structure (SMILES)	IC50 [1, 3]	IC50 [2]	IC50 [1]
N[C@@H]1c2ccccc2OC12CCN(c1nc3nc(Sc4cccnc4C(F)(F)F)cnc3[nH]1)CC2 [Example 143, (R)-1′-(5-((2-(trifluoromethyl)pyridin-3-yl)thio)-1H-imidazo[4,5-b]pyrazin-2-yl)-3H-spiro[benzofuran-2,4′-piperidin]-3-amine]	< 1 µM	< 0.5 µM	–
CC1(N)CCN(c2nc3nc(Sc4cccc(Cl)c4Cl)ncc3[nH]2)CC1 [Example 144, 1-(2-((2,3-dichlorophenyl)thio)-7H-purin-8-yl)-4-methylpiperidin-4-amine]	> 5 µM	0.5 to 3 µM	–
Nc1nccc(Sc2cnc3[nH]c(N4CCC5(CC4)Cc4ncccc4[C@H]5N)nc3n2)c1Cl [Example 145, (S)-1′-(5-((2-amino-3-chloropyridin-4-yl)thio)-1H-imidazo[4,5-b]pyrazin-2-yl)-5,7-dihydrospiro[cyclopenta[b]pyridine-6,4′-piperidin]-5-amine]	< 1 µM	< 0.5 µM	–
CNc1nccc(Sc2cnc3[nH]c(N4CCC5(CC4)Cc4ncccc4[C@H]5N)nc3n2)c1Cl [Example 146, (S)-1′-(5-((3-chloro-2-(methylamino)pyridin-4-yl)thio)-1H-imidazo[4,5-b]pyrazin-2-yl)-5,7-dihydrospiro[cyclopenta[b]pyridine-6,4′-piperidin]-5-amine]	< 1 µM	< 0.5 µM	–
CC(=O)Nc1nccc(Sc2cnc3[nH]c(N4CCC5(CC4)Cc4ccccc4[C@H]5N)nc3n2)c1Cl [Example 147, (S)-N-(4-((2-(1-amino-1,3-dihydrospiro[indene-2,4′-piperidin]-1′-yl)-1H-imidazo[4,5-b]pyrazin-5-yl)thio)-3-chloropyridin-2-yl)acetamide]	< 1 µM	< 0.5 µM	–
N[C@@H]1c2ccccc2CC12CCN(c1nc3nc(Sc4ccncc4Cl)cnc3[nH]1)CC2 [Example 148, (S)-1′-(5-((3-chloropyridin-4-yl)thio)-1H-imidazo[4,5-b]pyrazin-2-yl)-1,3-dihydrospiro[indene-2,4′-piperidin]-1-amine]	–	< 0.5 µM	< 1 µM
N[C@H]1c2ccccc2CC12CCN(c1nc3nc(Sc4cccnc4C(F)(F)F)cnc3[nH]1)CC2 [Example 149, (R)-1′-(5-((2-(trifluoromethyl)pyridin-3-yl)thio)-1H-imidazo[4,5-b]pyrazin-2-yl)-1,3-dihydrospiro[indene-2,4′-piperidin]-1-amine]	–	< 0.5 µM	1 to 5 µM
N[C@@H]1c2cccnc2CC12CCN(c1nc3nc(Sc4ccncc4Cl)cnc3[nH]1)CC2 [Example 150, (S)-1′-(5-((3-chloropyridin-4-yl)thio)-1H-imidazo[4,5-b]pyrazin-2-yl)-5,7-dihydrospiro[cyclopenta[b]pyridine-6,4′-piperidin]-5-amine]	1 to 5 µM	< 0.5 µM	–
COc1nccc(Sc2cnc3[nH]c(N4CCC5(CC4)Cc4ncccc4[C@H]5N)nc3n2)c1Cl [Example 151, (S)-1′-(5-((3-chloro-2-methoxypyridin-4-yl)thio)-1H-imidazo[4,5-b]pyrazin-2-yl)-5,7-dihydrospiro[cyclopenta[b]pyridine-6,4′-piperidin]-5-amine]	> 5 µM	< 0.5 µM	–
N[C@@H]1c2ccccc2CC12CCN(c1nc3nc(Sc4ccnc(O)c4Cl)cnc3[nH]1)CC2 [Example 152, (S)-4-((2-(1-amino-1,3-dihydrospiro[indene-2,4′-piperidin]-1′-yl)-1H-imidazo[4,5-b]pyrazin-5-yl)thio)-3-chloropyridin-2-ol]	–	< 0.5 µM	> 5 µM
N[C@@H]1c2cccnc2CC12CCN(c1nc3nc(Sc4ccnc(OC5COC5)c4Cl)cnc3[nH]1)CC2 [Example 153, (S)-1′-(5-((3-chloro-2-(oxetan-3-yloxy)pyridin-4-yl)thio)-1H-imidazo[4,5-b]pyrazin-2-yl)-5,7-dihydrospiro[cyclopenta[b]pyridine-6,4′-piperidin]-5-amine]	> 5 µM	0.5 to 3 µM	–
